The values that follow come from US6903111B2 (priority 2001, dated 2005).

Where only a bound is given, the exact number is not on record here.

`O=C(Nc1ccncc1)[C@H](CC(=O)N1CC2CCC1CC2)Cc1ccccc1` yielded a melting point of 171 to 172 °C. The same measure for `O=C(Oc1ccc(O)cc1)[C@H](CC(=O)N1CC2CCC1CC2)Cc1ccccc1` [Compound 18, p-hydroxy phenyl (2S)-2-benzyl-4-(isoquinuclidine-2-yl)-4-oxo-butyrate]: 61 to 64 °C; for `O=C(C[C@H](Cc1ccccc1)NS(=O)(=O)C(F)(F)F)N1CC2CCC1CC2`: 155 to 158 °C.

The compound `O=C(Cc1ccc(NS(=O)(=O)C(F)(F)F)cc1)N[C@H](CC(=O)N1CC2CCC1CC2)Cc1ccccc1` displayed a melting point of 78 to 80 °C. For `O=C(Nc1nccs1)[C@H](CC(=O)N1CC2CCC1CC2)Oc1ccccc1` the value was 60 to 65 °C.

Compound `CN(c1c(O)c(=O)c1=O)[C@H](CC(=O)N1CC2CCC1CC2)Cc1ccccc1` [Compound 52, N-(3-hydroxy-3-cyclobutene-1,2-dione-4-yl)-N-methyl-(1S)-[2-(isoquinuclidin-2-yl)-2-oxo-ethyl]-phenyl ethylamine] showed a melting point of 153 to 155 °C. The same measure for `O=C(O)/C=C/[C@H](CC(=O)N1CC2CCC1CC2)Cc1ccccc1`: 52 to 53 °C; for `O=C(C[C@H](Cc1ccccc1)Nc1c(O)c(=O)c1=O)N1CC2CCC1CC2`: 156 to 158 °C; for `O=C(O)C(C[C@H](CC(=O)N1CC2CCC1CC2)Cc1ccccc1)C(=O)O`: 78 to 80 °C. As for `O=C(Nc1cc(F)c(O)c(F)c1)[C@H](CC(=O)N1CC2CCC1CC2)Cc1ccccc1`, the melting point lay in the range of 118 to 120 °C. The same measure for `CS(=O)(=O)N[C@H](CC(=O)N1CC2CCC1CC2)Cc1ccccc1`: 127 to 129 °C; for `O=C(O)[C@@H](CCOc1ccccc1)CC(=O)N1CC2CCC1CC2`: 117 to 119 °C.

`CS(=O)(=O)N[C@@H](CC(=O)N1CC2CCC1CC2)Cc1ccccc1` had a melting point of 129 to 130 °C. The same measure for `O=C(O)C(=O)Nc1ccc(C(=O)N[C@@H](CC(=O)N2CC3CCC2CC3)Cc2ccccc2)cc1`: 200 to 201 °C. The same measure for `O=C(O)[C@H](CCN1CC2CCC1CC2)Cc1ccccc1` [Compound 47]: 171 to 174 °C; for `O=C(O)CC(=O)N[C@H](CC(=O)N1CC2CCC1CC2)Cc1ccccc1`: 149 to 151 °C. The same measure for `O=C(Oc1ccc(NS(=O)(=O)C(F)(F)F)cc1)[C@H](CC(=O)N1CC2CCC1CC2)Cc1ccccc1`: 60 to 62 °C; for `O=C(C[C@@H](Cc1ccccc1)NS(=O)(=O)C(F)(F)F)N1CC2CCC1CC2`: 128 to 130 °C; for `O=C(O)C(O)[C@H](CC(=O)N1CC2CCC1CC2)Cc1ccccc1` (stereo partly drawn): 60 to 61 °C. `O=C(O)[C@H](CC(=O)N1CC2CCC1CC2)Oc1ccccc1` showed a melting point of 140 to 142 °C. Turning to `O=C(Oc1ccccc1)[C@H](CC(=O)N1CC2CCC1CC2)Cc1ccccc1` [Compound 15, (2S)-2-benzyl-4-(isoquinuclidin-2-yl)-4-oxo-butanoic acid phenylester], the melting point fell in the range of 112 to 113 °C.

On to `CCOc1cc(CC(=O)N[C@H](CC(=O)N2CC3CCC2CC3)Cc2ccccc2)ccc1C(=O)O`, for which the melting point was 100 to 103 °C.

With `O=C(O)CC[C@H](CC(=O)N1CC2CCC1CC2)Cc1ccccc1`, the melting point lay in the range of 79 to 81 °C.

The compound `O=C(O)[C@H](CCOc1ccccc1)CC(=O)N1CC2CCC1CC2` displayed a melting point of 115 to 117 °C. For `O=C(OC1CCCCC1)[C@H](CC(=O)N1CC2CCC1CC2)Cc1ccccc1` [Compound 14] the value was 92 to 95 °C; for `O=C(O)[C@H](CC(=O)N1CC2CCC1CC2)Cc1ccccc1` [Compound 1, (2S)-2-benzyl-4-(isoquinuclidin-2-yl)-4-oxo-butanoic acid], 93 to 95 °C.

`O=C(Cc1ccc(NC(=O)C(=O)O)cc1)N[C@@H](CC(=O)N1CC2CCC1CC2)Cc1ccccc1` had a melting point of 79 to 80 °C. The compound `O=C([O-])[C@H](CC(=O)N1CC2CCC1CC2)Cc1ccccc1.[Na+]` [Compound 11] came in with a melting point of more than 250 °C. Compound `O=C(O)C(=O)N[C@H](CC(=O)N1CC2CCC1CC2)Cc1ccccc1` had a melting point of 156 to 159 °C.

For the compound `O=C(Nc1nccs1)[C@H](CC(=O)N1CC2CCC1CC2)Cc1ccccc1`, the melting point lay within 69 to 72 °C. For `O=C(C[C@@H](C=NOS(=O)(=O)O)Cc1ccccc1)N1CC2CCC1CC2` the value was 148 to 151 °C. The same measure for `O=C(Nc1ccc(NS(=O)(=O)C(F)(F)F)cc1)[C@H](CC(=O)N1CC2CCC1CC2)Cc1ccccc1`: 136 to 138 °C; for `O=C(O)C(C[C@H](CC(=O)N1CC2CCC1CC2)CC1CCCCC1)C(=O)O`: 84 to 85 °C.

In general, melting point refers to the temperature, or range, at which the solid turns liquid.
